Pest or weed control and plant injury data for one compound are collected here from patent US12077503B2, “Substituted cyclic amides and their use as herbicides” (FMC CORPORATION, priority 2015, dated 2024).

Holding throughout (assay type): in vivo
Experiment [1] concerns pigweed (Amaranthus retroflexus). Put plainly: Test A preemergence. The conditions noted are these: Amaranthus retroflexus, pre-emergence, 240 h.
In experiment [2] the test system is barnyardgrass (Echinochloa crus-galli). Put plainly: Test A preemergence. The note with it: Echinochloa crus-galli, pre-emergence, 240 h. An outline of the steps:
(§1)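 Visual injury scores from 0, no effect, to 100, complete control, were assigned versus untreated controls roughly 10 d after treatment in the greenhouse. Test chemicals, formulated with surfactant in a non-phytotoxic solvent, were applied to planted seeds as a preemergence soil spray or postemergence to one- to two-leaf plants 2 to 10 cm tall, in loam–sand soil.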

Experiment [3] deals with ryegrass, Italian (Italian ryegrass, Lolium multiflorum). Nature of the experiment: Test A preemergence. The note with it: Lolium multiflorum, pre-emergence, 240 h. An outline of the steps:
as §1

The test system of experiment [4] is Kochia (Kochia scoparia). Put plainly: Test A preemergence. The conditions noted are these: Bassia scoparia, pre-emergence, 240 h. An outline of the steps:
as §1

The subject of experiment [5] is giant foxtail (Setaria faberii). Put plainly: Test A preemergence. The note with it: Setaria faberi, pre-emergence, 240 h. An outline of the steps: as §1
Experiment [6] deals with ragweed (common ragweed, Ambrosia elatior). Put plainly: Test A preemergence. The note with it: Ambrosia artemisiifolia, pre-emergence, 240 h. An outline of the steps: as §1
Experiment [7] has as its system wheat (Triticum aestivum). Nature of the experiment: Test A postemergence. The note with it: Triticum aestivum, post-emergence, 240 h, 125 g ai/ha, postemergence, visual injury rating after approximately 10 d; read-out: Wheat plant response rating (0 to 100 scale, 0 no effect, 100 complete control). An outline of the steps:
as §1

For experiment [8], the system named is blackgrass (Alopecurus myosuroides). Nature of the experiment: Test A postemergence. The note with it: Alopecurus myosuroides, post-emergence, 240 h, 125 g ai/ha, postemergence, visual injury rating after approximately 10 d; read-out: Blackgrass plant response rating (0 to 100 scale, 0 no effect, 100 complete control). An outline of the steps: as §1
Experiment [9] relates to corn (Zea mays). Put plainly: Test A postemergence. The note with it: Zea mays, post-emergence, 240 h, 125 g ai/ha, postemergence, visual injury rating after approximately 10 d; read-out: Corn plant response rating (0 to 100 scale, 0 no effect, 100 complete control). An outline of the steps:
as §1

Experiment [10] has as its system barnyardgrass (Echinochloa crus-galli). Put plainly: Test A postemergence. The conditions noted are these: Echinochloa crus-galli, post-emergence, 240 h, 125 g ai/ha, postemergence, visual injury rating after approximately 10 d; read-out: Barnyardgrass plant response rating (0 to 100 scale, 0 no effect, 100 complete control). In outline:
as §1

Experiment [11] relates to ryegrass, Italian (Italian ryegrass, Lolium multiflorum). Put plainly: Test A postemergence. The note with it: Lolium multiflorum, post-emergence, 240 h, 125 g ai/ha, postemergence, visual injury rating after approximately 10 d; read-out: Ryegrass, Italian plant response rating (0 to 100 scale, 0 no effect, 100 complete control). An outline of the steps:
as §1

Experiment [12] has as its system Kochia (Kochia scoparia). Nature of the experiment: Test A postemergence. The conditions noted are these: Bassia scoparia, post-emergence, 240 h, 125 g ai/ha, postemergence, visual injury rating after approximately 10 d; read-out: Kochia plant response rating (0 to 100 scale, 0 no effect, 100 complete control). In outline: as §1
Experiment [13] relates to giant foxtail (Setaria faberii). Put plainly: Test A postemergence. The note with it: Setaria faberi, post-emergence, 240 h, 125 g ai/ha, postemergence, visual injury rating after approximately 10 d; read-out: Foxtail, Giant plant response rating (0 to 100 scale, 0 no effect, 100 complete control). An outline of the steps: as §1
For experiment [14], the system named is Galium (catchweed bedstraw, Galium aparine). Put plainly: Test A postemergence. The note with it: Galium, post-emergence, 240 h, 125 g ai/ha, postemergence, visual injury rating after approximately 10 d; read-out: Galium plant response rating (0 to 100 scale, 0 no effect, 100 complete control). An outline of the steps: as §1
Experiment [15] relates to ragweed (common ragweed, Ambrosia elatior). Put plainly: Test A postemergence. The note with it: Ambrosia artemisiifolia, post-emergence, 240 h, 125 g ai/ha, postemergence, visual injury rating after approximately 10 d; read-out: Ragweed plant response rating (0 to 100 scale, 0 no effect, 100 complete control). An outline of the steps: as §1

Consider `Cc1c(F)ccc([C@H]2CNC(=O)[C@@H]2C(=O)Nc2ccc(F)c(F)c2F)c1F` [Compound 830], for which the pest or weed control at 125 g/ha came out at 20% in experiment [1] (125 g ai/ha, preemergence, 0 to 100 scale where 0 is no effect and 100 is complete control, read-out: Pigweed plant response rating); 90% in experiment [2] (125 g ai/ha, preemergence, 0 to 100 scale where 0 is no effect and 100 is complete control, read-out: Barnyardgrass plant response rating); 0% in experiment [3] (125 g ai/ha, preemergence, 0 to 100 scale where 0 is no effect and 100 is complete control, read-out: Ryegrass, Italian plant response rating); 70% in experiment [4] (125 g ai/ha, preemergence, 0 to 100 scale where 0 is no effect and 100 is complete control, read-out: Kochia plant response rating); 90% in experiment [5] (125 g ai/ha, preemergence, 0 to 100 scale where 0 is no effect and 100 is complete control, read-out: Foxtail, Giant plant response rating); 0% in experiment [6] (125 g ai/ha, preemergence, 0 to 100 scale where 0 is no effect and 100 is complete control, read-out: Ragweed plant response rating). The pest or weed control at 125 g/ha in [8] came to 20%; in experiment [10], 90%; in experiment [11], 20%; in experiment [12], 30%; in [13] it was 70%; in [14], 30%. Also, the pest or weed control at 125 g/ha in [15] was found to be 0%. The pest or weed control at 500 g/ha in experiment [1] (500 g ai/ha, Preemergence, visual injury vs untreated controls after approximately 10 d, read-out: Pigweed plant response rating (0 to 100 scale where 0 is no effect and 100 is complete control)) came to 40%; in [2] (500 g ai/ha, Preemergence, visual injury vs untreated controls after approximately 10 d, read-out: Barnyardgrass plant response rating (0 to 100 scale where 0 is no effect and 100 is complete control)), 90%; in [3] (500 g ai/ha, Preemergence, visual injury vs untreated controls after approximately 10 d, read-out: Ryegrass, Italian plant response rating (0 to 100 scale where 0 is no effect and 100 is complete control)) it was 30%; in [4] (500 g ai/ha, Preemergence, visual injury vs untreated controls after approximately 10 d, read-out: Kochia plant response rating (0 to 100 scale where 0 is no effect and 100 is complete control)) it was 90%; in experiment [5] (500 g ai/ha, Preemergence, visual injury vs untreated controls after approximately 10 d, read-out: Foxtail, Giant plant response rating (0 to 100 scale where 0 is no effect and 100 is complete control)), 90%; in [6] (500 g ai/ha, Preemergence, visual injury vs untreated controls after approximately 10 d, read-out: Ragweed plant response rating (0 to 100 scale where 0 is no effect and 100 is complete control)) it was 20%. The plant injury at 125 g/ha in experiment [7] and in experiment [9] was 0% each time.
